Biological target: T1, TLR7 (Mus musculus, UniProt P58681)
T1 construct: endogenous in cells; host or cells: primary splenocytes of BALB/c mice
T1 sequence (P58681 27-1050): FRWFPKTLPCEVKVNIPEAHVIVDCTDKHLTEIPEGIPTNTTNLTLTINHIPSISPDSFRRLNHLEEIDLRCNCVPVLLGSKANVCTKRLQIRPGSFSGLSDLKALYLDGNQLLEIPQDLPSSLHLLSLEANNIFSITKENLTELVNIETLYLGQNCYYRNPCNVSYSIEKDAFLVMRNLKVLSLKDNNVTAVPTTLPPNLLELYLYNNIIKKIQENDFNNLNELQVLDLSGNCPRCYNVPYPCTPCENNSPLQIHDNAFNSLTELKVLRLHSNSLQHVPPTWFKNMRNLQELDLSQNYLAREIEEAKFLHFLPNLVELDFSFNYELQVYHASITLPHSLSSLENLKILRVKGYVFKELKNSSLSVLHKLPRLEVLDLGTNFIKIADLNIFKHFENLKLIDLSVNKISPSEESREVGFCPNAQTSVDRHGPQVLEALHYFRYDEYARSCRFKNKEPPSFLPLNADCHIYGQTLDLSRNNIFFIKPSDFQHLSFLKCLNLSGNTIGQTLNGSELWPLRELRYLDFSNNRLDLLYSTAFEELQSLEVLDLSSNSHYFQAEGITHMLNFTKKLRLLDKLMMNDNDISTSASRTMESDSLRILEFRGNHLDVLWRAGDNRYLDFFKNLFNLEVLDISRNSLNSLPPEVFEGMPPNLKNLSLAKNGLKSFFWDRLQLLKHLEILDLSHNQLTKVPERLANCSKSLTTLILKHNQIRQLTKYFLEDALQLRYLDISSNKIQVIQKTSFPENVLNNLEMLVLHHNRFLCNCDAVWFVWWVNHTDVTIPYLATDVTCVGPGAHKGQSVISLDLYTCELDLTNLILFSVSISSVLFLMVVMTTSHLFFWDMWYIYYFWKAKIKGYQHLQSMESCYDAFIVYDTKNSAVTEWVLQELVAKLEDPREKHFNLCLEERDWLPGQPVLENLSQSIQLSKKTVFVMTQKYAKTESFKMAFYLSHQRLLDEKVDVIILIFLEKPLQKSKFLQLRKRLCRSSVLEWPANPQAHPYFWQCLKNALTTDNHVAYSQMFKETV
Test: Tape stripping in TLR9-deficient mice
Format: in vivo
Conditions: 100 μg sc, 24 hr
Method: (A) TLR7−/− (black histograms) and age matched WT C57/BL6 mice (grey histograms) were either left untreated (naive) or tape stripped to provoke inflammation. 24 hr later, skin biopsies were isolated and the levels of proinflammatory genes evaluated by Taqman. n=10 mice is shown (Mean±SEM); * p≦0.05. B) TLR9−/− were tape stripped (black histograms) or tape stripped immediately after treatment (s.c) with the dual TLR7 and TLR9 inhibitor IRS 954 (100 μg; sc) (dashed histograms). Age matched WT C57/BL6 mice were either left untreated (naïve; white histograms) or tape stripped (grey histograms). 24 hr later, skin biopsies were isolated and the levels of proinflammatory genes evaluated by Taqman. n=10 mice is shown (Mean±SEM); * p≦0.05.
C57BL/6 and 129 mice were purchased from Charles River Laboratories. (NZBxNZW)F1 female mice were purchased from Jackson Laboratories and used at 18-22 weeks of age. MyD88/KO and TLR9/KO mouse colonies were maintained at Simonsen Laboratories and used with age matched C57BL/6 wild type controls at 8-12 weeks of age. Tape stripping was performed after shaving the dorsal area (3×3 cm) using 10 strokes with duct tape. IRS was administered just before tape stripping SC at a distant site. […] Percentage of area with open lesions in (NZBxNZW)F1 and normal mice was evaluated with Nikon software NIS-elements.

## 5′-TGCTCCTGGAGGGGTTGT-3′ (DNA, backbone not given here) [SEQ ID NO:42]
  inhibition of skin gene expression: completed the inhibition

From US8940310B2, “Methods of treatment using TLR7 and/or TLR9 inhibitors” (Dynavax Technologies Corporation, priority 2010, dated 2015)
